US11219623B2, “Inflammasome inhibition for the treatment of Parkinson's disease, Alzheimer's disease and multiple sclerosis” (University of Kentucky Research Foundation, priority 2015, dated 2022)
Values after ≈ are worked out from the molar mass of the structure shown. “Also recorded” adds a separate entry of the source.

Assays:
[1] = system: wild-type mice; test: pAlu-induced RPE degeneration, mouse model of dry AMD; format: in vivo; settings: intraperitoneal 25 mg/kg twice daily
Procedure: Mouse studies were conducted to study treatment with NRTIs or derivatives.

[2] = system: wild-type mice; test: Laser-induced choroidal neovascularization (CNV; wet AMD) in wild-type mice; settings: intravitreous 0.14 nmol; day 7; N=16
[3] = system: Caspase-1; test: iGLuc luminescence assay of ATP-induced Caspase-1 activation in J774 iGLuc cells; format: cell-based, mouse; settings: for Caspase-1 cleavage (luminescence): ATP 5 mM, drug 1 nM-100 μM, N=3
Procedure: Caspase-1 is the enzyme at the core of the inflammasome complex and is an important danger response signal and mediator of RPE cell death in AMD. […] Importantly, there was some difference between individual compounds in terms of the dose response curve, emphasizing the need to test each compound (with unique R group(s)) individually.
To obtain the data set forth in FIGS. 64-73, an iGLuc assay was conducted (modified from Bartok et al. iGLuc: a luciferase-based inflammasome and protease activity reporter. Nature Methods 2013; 10(2):147-54). Briefly, 100,000 iGLuc cells per well were plated in a 96 well plate overnight. The next morning, media is aspirated from the plate and replaced with 75 μL of serum free DMEM with drugs (NRTIs or modified NRTIs) for 30 min. After 30 minutes of drug exposure, 20 mM ATP (25 μL) is added for a final concentration of 5 mM. 50 μL of media from each well is collected and 50 μL of coelenterazine 4.4 μM is added to each sample, and luminescence is read immediately.

[4] = system: human LINE-1 retrotransposon; test: EGFP cell culture L1 retrotransposition assay in HeLa cells; format: cell-based; settings: 7 days after transfection, flow cytometry
Procedure: These findings pave way for the rational re-design and improvement of nucleoside analogs as novel therapeutics. The enhanced green fluorescent protein (EGFP) cell culture L1 retrotransposition assay was performed in HeLa cells. […] Transfected cells were selected in puromycin. 7 days after transfection, cells that underwent retrotransposition (EGFP-positive) were assayed by flow cytometry. Cells were gated based on background fluorescence of plasmid JM111, which has two point mutations in L1-ORF1 that abolish retrotransposition. Data are normalized with RPS set to 1.

[5] = Solubility in water; format: physicochemical; settings: aqueous buffer; Water pH 7.2 at 37° C.
[6] = LogP, partition coefficient in 1-octanol; format: physicochemical; settings: 1-octanol partition
[7] = system: Caspase-1; test: Alu RNA-induced Caspase-1 activation, western blot, primary human RPE cells; format: cell-based
Text: The bottom row in FIG. 5 is a vinculin loading control.

[8] = system: mtDNA; test: Relative quantity of mtDNA, quantitative PCR, primary human RPE cells; settings: 50 μM; four days; relative to DMSO
[9] = system: GFP-expressing lentivirus; test: GFP-expressing lentivirus transduction/replication assay in HeLa cells; format: cell-based; settings: 10 μM; 72 hours; MOI 20
Procedure: All drugs were added at a concentration of 10 μM. Cells were imaged for GFP expression 72 hours after addition of lentivirus. GFP-positive cells per field of view were recorded. n=4-11, error bars S.E.M. Reverse transcription of lentivirus is essential for GFP expression; modified NRTIs should not block reverse transcriptase, whereas NRTIs are known to block reverse transcriptase.
The present disclosure further provides the results of additional experiments in FIG. 21-FIG. 23.

[10] = system: Caspase-1; test: Iron (III) ammonium citrate-induced Caspase-1 activation, western blot, primary human RPE cells; format: cell-based; settings: Fe(III) ammonium citrate (100 μM)
Text: Caspase-1 activation (p20 subunit) in primary human retinal pigment epithelium (RPE) cells in the presence of iron (III) ammonium citrate was studied.
Caspase-1 activation (p10 subunit) in primary human RPE cells in the presence of iron (III) ammonium citrate was studied.
Alu RNA is a toxic endogenous retroelement that accumulates in and causes death of the RPE in patients with dry AMD. […] FAC activates Caspase-1 via an Alu RNA intermediate, and induces NLRP3-dependent RPE degeneration (Gelfand et al. Cell Reports 2015). Fe(III) ammonium citrate (100 μM)-induced Caspase-1 activation in primary human RPE cells, monitored by western blotting, is reduced by TM-3TC (25 μM), d4T-ene (25 μM), 2Me-d4T (25 μM), Me-AZT (25-100 μM), and 2Me-AZT (25 μM). N=3-4.

Row | Compound | pAlu-induced RPE degeneration [1] | Caspase-1 cleavage (luminescence) [3] | L1 retrotransposition (EGFP-positive cells) [4] | solubility [5] [µg/mL] | logP [6] | also measured
1 | CCOC[C@H]1O[C@@H](n2ccc(N(CC)CC)nc2=O)CS1 (stereo in doubt) [Kamuvudine 3Et-3TC, 4-(diethylamino)-1-[2-(ethoxymethyl)-1,3-oxathiolan-5-yl]-1,2-dihydropyrimidin-2-one] | protects against RPE degeneration | reduces Caspase-1 cleavage in a dose-dependent fashion | some residual interference with natural L1 activity | 1600 (≈ 5.1 mM) | 1.16 | choroidal neovascularization (CNV) volume [2]: reduced choroidal neovascularization (CNV) volume
2 | CCOC[C@@H]1C=C[C@H](n2cc(C)c(=O)n(CC)c2=O)O1 [Kamuvudine 2Et-d4T, 1-[(2R,5 S)-5-(ethoxymethyl)-2,5-dihydrofuran-2-yl]-3-ethyl-5-methyl-1,2,3,4-tetrahydropyrimidine-2,4-dione] | protects against RPE degeneration | reduces Caspase-1 cleavage in a dose-dependent fashion | no effect on L1 activity | 90 (≈ 0.321 mM) | 1.35 | reduction of inflammasome activation ([3]; ATP (5 mM), mouse J774 iGLuc cells, FIGS. 70-73): about 45%; Alu RNA induced Caspase-1 activation ([7]; 25 μM, N=3-4): reduced
3 | COC[C@H]1O[C@@H](n2cc(C)c(=O)n(C)c2=O)C[C@@H]1N=[N+]=[N-] [Kamuvudine 2Me-AZT, 1-[(2R,4S,5S)-4-azido-5-(methoxymethyl)oxolan-2-yl]-3,5-dimethyl-1,2,3,4-tetrahydropyrimidine-2,4-dione] | restored to healthy RPE morphology/intercellular junctions | reduces Caspase-1 cleavage in a dose-dependent fashion | no effect on L1 activity | 940 (≈ 3.18 mM) | 0.45 | relative quantity of mtDNA (mtDNA depletion) [8]: do not exhibit mtDNA depletion; Alu RNA induced Caspase-1 activation ([7]; 25 μM, N=3-4): reduced; lentivirus replication (GFP-positive cells per field) [9]: do not block lentivirus replication; iron-induced Caspase-1 activation ([10]; 25 μM): reduced
4 | COCC1O[C@@H](n2cc(C)c(=O)[nH]c2=O)CC1N=[N+]=N (stereo partly drawn) [Me-AZT, 1-[(5R)-2-(methoxymethyl)-5-(5-methyl-2,4-dioxo-1,2,3,4-tetrahydropyrimidin-1-yl)oxolan-3-yl]triaza-1,2-dien-2-ium] | restored to healthy RPE morphology/intercellular junctions | – | no effect on L1 activity | – | – | relative quantity of mtDNA (mtDNA depletion) [8]: do not exhibit mtDNA depletion; lentivirus replication (GFP-positive cells per field) [9]: do not block lentivirus replication; iron-induced Caspase-1 activation ([10]; 25-100 μM): reduced
5 | Clc1ccc(C(c2ccc(Cl)cc2)n2cc[n+](CC(OCc3ccc(Cl)cc3Cl)c3ccc(Cl)cc3Cl)c2)cc1 (centres unmarked) [calmidazolium, reference compound] | – | – | – | – | – | Alu RNA-induced Caspase-1 activation/cleavage ([7]; concentration not given): not inhibited
6 | C=C1C=C[C@H](n2cc(C)c(=O)[nH]c2=O)O1 [d4T-ene] | – | – | – | – | – | Alu RNA induced Caspase-1 activation ([7]; 25-100 μM (25 and 100 μM)): blocked Alu-induced Caspase-1 activation; also recorded: reduced; iron-induced Caspase-1 activation ([10]; 25 μM): blocked iron-induced Caspase-1 activation; also recorded: reduced
7 | Nc1ccn([C@@H]2CS[C@H](CO)O2)c(=O)n1 [reference compound] | – | – | – | 64000 (≈ 279 mM) | -1.1 | –
